Measurements from patent US9371320B2, “Heterocyclic compound” (TAKEDA PHARMACEUTICAL COMPANY LIMITED, priority 2012, dated 2016).

Tests used:
JAK1 = target: T1, JAK1 (Homo sapiens, UniProt P23458); test: JAK1 enzyme inhibition test (LANCE method); assay type: biochemical; details: for inhibition at 1 µM: test compound 1 μM, read-out: Inhibitory rate (%) JAK1 1 μM
T1 construct: purchased Invitrogen
Method: JAK1 Enzyme Inhibition Test
(§1) JAK1 enzyme inhibitory activity of test compounds was measured by LANCE method (PerkinElmer). First, a test compound diluted with assay buffer (50 mM HEPES (pH=7.5), 10 mM MgCl2, 1 mM EGTA, 2 mM DTT, 0.01% Tween20, 0.01% BSA) was added to 384-well plate at 2 μL each. Then, a JAK1 (Invitrogen) solution and a fluorescence-labeled peptide substrate (ULight-JAK1, PerkinElmer) solution diluted with assay buffer at 187.5 ng/mL and 300 nM, respectively were added at 2 μL each. Then, enzyme reaction was started by adding 2 μL each of ATP solution prepared with assay buffer at 150 μM. After the reaction at room temperature for 1 hr, Detection Buffer (PerkinElmer) prepared to be 20 mM EDTA, 4 nM europium-labeled anti-phosphotyrosine antibody (PerkinElmer) was added at 6 μL each. After standing at room temperature for 1 hr, fluorescence intensity (excitation wavelength 340 nm, fluorescence wavelength 665 nm, delay time 100 microsecond) was measured by a plate reader, Envision (PerkinElmer). The inhibitory activity of each compound was calculated as relative value where fluorescence intensity of a well without enzyme is considered as 100% inhibition.

Tyk2 = target: T2, Tyk2 (Homo sapiens, UniProt P29597); test: Tyk2 enzyme inhibition test (LANCE method); assay type: biochemical; details: for inhibition at 1 µM: test compound 1 μM, read-out: Inhibitory rate (%) Tyk2 1 μM
T2 construct: purchased Invitrogen
T2 sequence (P29597 whole entry): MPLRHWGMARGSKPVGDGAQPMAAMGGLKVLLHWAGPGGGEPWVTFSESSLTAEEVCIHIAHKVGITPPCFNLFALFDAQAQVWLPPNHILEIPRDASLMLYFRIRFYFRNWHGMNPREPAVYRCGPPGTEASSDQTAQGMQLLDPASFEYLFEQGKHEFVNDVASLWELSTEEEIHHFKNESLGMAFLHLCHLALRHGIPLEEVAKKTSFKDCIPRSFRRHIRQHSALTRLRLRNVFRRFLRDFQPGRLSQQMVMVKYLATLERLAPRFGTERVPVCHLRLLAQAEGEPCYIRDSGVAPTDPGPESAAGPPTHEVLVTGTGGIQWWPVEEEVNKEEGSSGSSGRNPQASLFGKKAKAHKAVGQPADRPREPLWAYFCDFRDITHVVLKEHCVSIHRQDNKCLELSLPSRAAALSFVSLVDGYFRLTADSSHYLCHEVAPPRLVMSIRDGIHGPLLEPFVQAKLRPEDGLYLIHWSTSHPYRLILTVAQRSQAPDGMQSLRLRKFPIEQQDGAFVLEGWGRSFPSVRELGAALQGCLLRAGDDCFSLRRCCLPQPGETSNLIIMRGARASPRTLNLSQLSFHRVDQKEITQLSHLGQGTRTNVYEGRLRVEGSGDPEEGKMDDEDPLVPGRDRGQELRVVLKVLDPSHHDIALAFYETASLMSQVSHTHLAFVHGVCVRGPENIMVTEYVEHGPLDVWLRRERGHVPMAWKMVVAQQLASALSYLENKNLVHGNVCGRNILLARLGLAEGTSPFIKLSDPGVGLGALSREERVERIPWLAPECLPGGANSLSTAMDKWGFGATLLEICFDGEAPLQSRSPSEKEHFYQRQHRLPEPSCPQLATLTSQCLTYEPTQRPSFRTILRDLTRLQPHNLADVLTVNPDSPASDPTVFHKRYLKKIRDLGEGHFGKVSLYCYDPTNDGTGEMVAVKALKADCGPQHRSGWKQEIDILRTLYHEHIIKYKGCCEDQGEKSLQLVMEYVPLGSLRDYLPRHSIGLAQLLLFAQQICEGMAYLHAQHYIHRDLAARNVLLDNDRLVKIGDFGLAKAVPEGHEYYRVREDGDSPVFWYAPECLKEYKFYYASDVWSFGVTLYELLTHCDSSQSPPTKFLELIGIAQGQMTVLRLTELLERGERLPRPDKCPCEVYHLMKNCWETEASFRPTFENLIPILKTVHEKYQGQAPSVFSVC
Method: Tyk2 Enzyme Inhibition Test
as §1, with “Tyk2 enzyme” for “JAK1 enzyme”, “a Tyk2” for “a JAK1”, “at 375” for “at 187.5”, “at 30” for “at 150”

T1 sequence (P23458 whole entry): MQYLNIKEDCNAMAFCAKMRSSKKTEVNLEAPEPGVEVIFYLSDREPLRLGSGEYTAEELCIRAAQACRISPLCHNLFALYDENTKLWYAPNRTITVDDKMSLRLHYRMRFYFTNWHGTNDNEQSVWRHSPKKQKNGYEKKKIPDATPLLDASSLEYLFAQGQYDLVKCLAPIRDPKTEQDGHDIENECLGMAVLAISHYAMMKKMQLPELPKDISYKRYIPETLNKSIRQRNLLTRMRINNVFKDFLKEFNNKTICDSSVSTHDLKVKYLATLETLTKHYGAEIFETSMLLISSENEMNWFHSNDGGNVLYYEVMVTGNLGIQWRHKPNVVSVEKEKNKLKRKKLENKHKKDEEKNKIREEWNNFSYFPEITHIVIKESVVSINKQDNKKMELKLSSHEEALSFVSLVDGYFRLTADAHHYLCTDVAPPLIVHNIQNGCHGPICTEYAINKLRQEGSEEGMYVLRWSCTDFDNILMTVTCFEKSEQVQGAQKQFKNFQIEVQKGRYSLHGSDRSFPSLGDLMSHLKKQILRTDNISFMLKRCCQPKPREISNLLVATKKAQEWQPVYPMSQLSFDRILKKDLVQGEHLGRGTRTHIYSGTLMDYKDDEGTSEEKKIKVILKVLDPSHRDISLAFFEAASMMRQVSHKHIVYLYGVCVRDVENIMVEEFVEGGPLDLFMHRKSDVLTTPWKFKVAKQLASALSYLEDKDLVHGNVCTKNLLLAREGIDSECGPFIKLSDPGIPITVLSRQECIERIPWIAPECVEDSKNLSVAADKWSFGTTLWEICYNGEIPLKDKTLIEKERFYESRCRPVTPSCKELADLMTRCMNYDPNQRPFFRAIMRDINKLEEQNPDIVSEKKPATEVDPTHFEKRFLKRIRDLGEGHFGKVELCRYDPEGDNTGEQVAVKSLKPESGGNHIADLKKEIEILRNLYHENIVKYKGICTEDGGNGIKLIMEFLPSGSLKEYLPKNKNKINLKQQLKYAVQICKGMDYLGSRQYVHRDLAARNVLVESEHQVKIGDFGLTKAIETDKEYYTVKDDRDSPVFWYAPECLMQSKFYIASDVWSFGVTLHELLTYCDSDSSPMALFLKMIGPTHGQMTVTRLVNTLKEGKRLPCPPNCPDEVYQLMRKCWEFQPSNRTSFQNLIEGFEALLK

Compound: O=c1[nH]ccc2c1c(-c1cccc(C(F)(F)F)c1)nn2C1CCCC1 [Example 52, 1-cyclopentyl-3-(3-(trifluoromethyl)phenyl)-1,5-dihydro-4H-pyrazolo[4,3-c]pyridin-4-one]
- inhibition at 1 µM (JAK1): 43%
- inhibition at 1 µM (Tyk2): 46%

Compound: O=c1[nH]ccc2c1c(-c1ccccc1C(F)(F)F)nn2C1CCCC1 [Example 53, 1-cyclopentyl-3-(2-(trifluoromethyl)phenyl)-1,5-dihydro-4H-pyrazolo[4,3-c]pyridin-4-one]
- inhibition at 10 µM (JAK1; test compound 10 μM, read-out: Inhibitory rate (%) JAK1 10 μM): 10%
- inhibition at 10 µM (Tyk2; test compound 10 μM, read-out: Inhibitory rate (%) Tyk2 10 μM): 28%

Compound: O=c1[nH]ccc2c1c(-c1ccc(F)cc1)nn2C1CCCC1 [Example 54, 1-cyclopentyl-3-(4-fluorophenyl)-1,5-dihydro-4H-pyrazolo[4,3-c]pyridin-4-one]
- inhibition at 1 µM (JAK1): 91%
- inhibition at 1 µM (Tyk2): 91%

Compound: O=c1[nH]ccc2c1c(-c1cccc(F)c1)nn2C1CCCC1 [Example 55, 1-cyclopentyl-3-(3-fluorophenyl)-1,5-dihydro-4H-pyrazolo[4,3-c]pyridin-4-one]
- inhibition at 1 µM (JAK1): 78%
- inhibition at 1 µM (Tyk2): 85%

Compound: O=c1[nH]ccc2c1c(-c1ccccc1F)nn2C1CCCC1 [Example 56, 1-cyclopentyl-3-(2-fluorophenyl)-1,5-dihydro-4H-pyrazolo[4,3-c]pyridin-4-one]
- inhibition at 1 µM (JAK1): 13%
- inhibition at 1 µM (Tyk2): 31%

Compound: O=c1[nH]ccc2c1c(-c1ccc([N+](=O)[O-])cc1)nn2C1CCCC1 [Example 57, 1-cyclopentyl-3-(4-nitrophenyl)-1,5-dihydro-4H-pyrazolo[4,3-c]pyridin-4-one]
- inhibition at 1 µM (JAK1): 88%
- inhibition at 1 µM (Tyk2): 81%

Compound: O=C1Cc2cc(-c3nn(C4CCCC4)c4cc[nH]c(=O)c34)ccc2N1 [Example 58, 1-cyclopentyl-3-(2-oxo-2,3-dihydro-1H-indol-5-yl)-1,5-dihydro-4H-pyrazolo[4,3-c]pyridin-4-one]
- inhibition at 1 µM (JAK1): 86%
- inhibition at 1 µM (Tyk2): 91%

Compound: O=c1[nH]ccc2c1c(-c1ccc3nonc3c1)nn2C1CCCC1 [Example 59, 3-(2,1,3-benzoxadiazol-5-yl)-1-cyclopentyl-1,5-dihydro-4H-pyrazolo[4,3-c]pyridin-4-one]
- inhibition at 1 µM (JAK1): 66%
- inhibition at 1 µM (Tyk2): 56%

Compound: CC(=O)c1c[nH]c(=O)c2c(-c3csc(C(N)=O)c3)cn(C3CCCC3)c12 [Example 60, 4-(7-acetyl-1-cyclopentyl-4-oxo-4,5-dihydro-1H-pyrrolo[3,2-c]pyridin-3-yl)thiophene-2-carboxamide]
- inhibition at 1 µM (JAK1): 50%
- inhibition at 1 µM (Tyk2): 89%

Compound: NC(=O)c1cc(-c2cn(C3CCCC3)c3c(C(=O)O)c[nH]c(=O)c23)cs1 [Example 61, 3-(5-carbamoyl-3-thienyl)-1-cyclopentyl-4-oxo-4,5-dihydro-1H-pyrrolo[3,2-c]pyridine-7-carboxylic acid]
- inhibition at 1 µM (JAK1): 8%
- inhibition at 1 µM (Tyk2): 41%

Compound: NC(=O)c1cc(-c2cn(C3CCCC3)c3c(C(N)=O)c[nH]c(=O)c23)cs1 [Example 62, 3-(5-carbamoyl-3-thienyl)-1-cyclopentyl-4-oxo-4,5-dihydro-1H-pyrrolo[3,2-c]pyridine-7-carboxamide]
- inhibition at 1 µM (JAK1): 69%
- inhibition at 1 µM (Tyk2): 81%

Compound: CNC(=O)c1cc(-c2cn(C3CCCC3)c3c(C(=O)NC)c[nH]c(=O)c23)cs1 [Example 63, 1-cyclopentyl-N-methyl-3-(5-(methylcarbamoyl)-3-thienyl)-4-oxo-4,5-dihydro-1H-pyrrolo[3,2-c]pyridine-7-carboxamide]
- inhibition at 1 µM (JAK1): 59%
- inhibition at 1 µM (Tyk2): 51%

Compound: N#Cc1c[nH]c(=O)c2c1c(C1CCCC1)nn2-c1csc(C(=O)O)c1 [Example 65, 4-(4-cyano-3-cyclopentyl-7-oxo-6,7-dihydro-1H-pyrazolo[3,4-c]pyridin-1-yl)thiophene-2-carboxylic acid]
- inhibition at 1 µM (JAK1): 27%
- inhibition at 1 µM (Tyk2): 76%

Compound: N#Cc1c[nH]c(=O)c2c1c(C1CCCC1)nn2-c1csc(C(N)=O)c1 [Example 66, 4-(4-cyano-3-cyclopentyl-7-oxo-6,7-dihydro-1H-pyrazolo[3,4-c]pyridin-1-yl)thiophene-2-carboxamide]
- inhibition at 1 µM (JAK1): 66%
- inhibition at 1 µM (Tyk2): 92%

Compound: NC(=O)c1cc(-n2nc(C3CCCC3)c3c(Br)c[nH]c(=O)c32)cs1 [Example 67, 4-(4-bromo-3-cyclopentyl-7-oxo-6,7-dihydro-1H-pyrazolo[3,4-c]pyridin-1-yl)thiophene-2-carboxamide]
- inhibition at 1 µM (JAK1): 55%
- inhibition at 1 µM (Tyk2): 91%

Compound: COC(=O)c1cc(-n2nc(-c3ccccc3C)c3c(C#N)c[nH]c(=O)c32)cs1 [Example 68, methyl 4-(4-cyano-3-(2-methylphenyl)-7-oxo-6,7-dihydro-1H-pyrazolo[3,4-c]pyridin-1-yl)thiophene-2-carboxylate]
- inhibition at 1 µM (JAK1): 4%
- inhibition at 1 µM (Tyk2): 67%

Compound: Cc1ccccc1-c1nn(-c2csc(C(=O)O)c2)c2c(=O)[nH]cc(C#N)c12 [Example 69, 4-(4-cyano-3-(2-methylphenyl)-7-oxo-6,7-dihydro-1H-pyrazolo[3,4-c]pyridin-1-yl)thiophene-2-carboxylic acid]
- inhibition at 1 µM (JAK1): 28%
- inhibition at 1 µM (Tyk2): 92%

Compound: Cc1ccccc1-c1nn(-c2csc(C(N)=O)c2)c2c(=O)[nH]cc(C#N)c12 [Example 70, 4-(4-cyano-3-(2-methylphenyl)-7-oxo-6,7-dihydro-1H-pyrazolo[3,4-c]pyridin-1-yl)thiophene-2-carboxamide]
- inhibition at 1 µM (JAK1): 41%
- inhibition at 1 µM (Tyk2): 88%

Compound: NC(=O)Cc1ccc(-c2nn(-c3c(F)cccc3F)c3cc[nH]c(=O)c23)cc1 [Example 72, 2-(4-(1-(2,6-difluorophenyl)-4-oxo-4,5-dihydro-1H-pyrazolo[4,3-c]pyridin-3-yl)phenyl)acetamide]
- inhibition at 1 µM (JAK1): 97%
- inhibition at 1 µM (Tyk2): 99%

Compound: COC(=O)c1c[nH]c(=O)c2c(-c3csc(C#N)c3)cn(C3CCCC3)c12 [Example 73, methyl 3-(5-cyano-3-thienyl)-1-cyclopentyl-4-oxo-4,5-dihydro-1H-pyrrolo[3,2-c]pyridine-7-carboxylate]
- inhibition at 1 µM (JAK1): 45%
- inhibition at 1 µM (Tyk2): 83%

Compound: COC(=O)c1c[nH]c(=O)c2c(-c3csc(-c4noc(=O)[nH]4)c3)cn(C3CCCC3)c12 [Example 74, methyl 1-cyclopentyl-4-oxo-3-(5-(5-oxo-4,5-dihydro-1,2,4-oxadiazol-3-yl)-3-thienyl)-4,5-dihydro-1H-pyrrolo[3,2-c]pyridine-7-carboxylate]
- inhibition at 1 µM (JAK1): 44%
- inhibition at 1 µM (Tyk2): 85%

Compound: NS(=O)(=O)c1ccc(-n2nc(C3CCCC3)c3cc[nH]c(=O)c32)cc1 [Example 75, 4-(3-cyclopentyl-7-oxo-6,7-dihydro-1H-pyrazolo[3,4-c]pyridin-1-yl)benzenesulfonamide]
- inhibition at 1 µM (JAK1): 93%
- inhibition at 1 µM (Tyk2): 84%

Compound: COC(=O)c1cc(-c2cn(C3CCCC3)c3c(C#N)c[nH]c(=O)c23)cs1 [Example 76, methyl 4-(7-cyano-1-cyclopentyl-4-oxo-4,5-dihydro-1H-pyrrolo[3,2-c]pyridin-3-yl)thiophene-2-carboxylate]
- inhibition at 1 µM (JAK1): 92%
- inhibition at 1 µM (Tyk2): 99%

Compound: N#Cc1c[nH]c(=O)c2c(-c3csc(C(=O)O)c3)cn(C3CCCC3)c12 [Example 77, 4-(7-cyano-1-cyclopentyl-4-oxo-4,5-dihydro-1H-pyrrolo[3,2-c]pyridin-3-yl)thiophene-2-carboxylic acid]
- inhibition at 1 µM (JAK1): 96%
- inhibition at 1 µM (Tyk2): 99%
